The values that follow come from ChEMBL document CHEMBL1641404 (Bioorg Med Chem Lett, 2011).

By AUC(0-t) is commonly meant the area under the concentration-time curve up to a stated or last time point. High values mean high exposure, low ones low exposure. For orientation: Cmax means the peak of the concentration-time curve. In general, clearance refers to a measure of how efficiently the substance is removed, as volume per time. A word on the Vd: it is a proportionality between amount in the body and measured concentration, not a real space. High values mean wide distribution into tissue, low ones little distribution into tissue. The half-life is the time in which the quantity being followed falls by half. The Tmax is the time from dosing to the highest level. For orientation: bioavailability means the share of a dose that reaches the circulation, judged against a reference dose that is usually intravenous. Lower therefore signals poor availability.

Holding throughout (type): ADME, organism-based
The nature of series [1]: AUC (0 to t) in CD-1 mouse 10 mg/kg, po. The note with it: plasma. Also on record: dose 10 mg/kg, route oral.
The test system of series [2] is Rattus norvegicus. Nature of the series: Cmax in Sprague-Dawley rat 5 mg/kg, po. Particulars: in vivo. Also on record: dose 5 mg/kg, route oral.
Series [3] relates to Mus musculus. Put plainly: Cmax in CD-1 mouse 10 mg/kg, po. More on the design: dose 10 mg/kg, route oral. Particulars: in vivo.
The nature of series [4]: Plasma concentration in mouse bearing ALK-positive tumor xenografts at 30 mg/kg, po up to 12 hrs. Also on record: dose 30 mg/kg, route oral.
A short description of series [5]: Clearance in CD-1 mouse 1 mg/kg, iv. Particulars: in vivo. Also on record: dose 1 mg/kg, route intravenous.
Series [6] can be described thus: Volume of distribution in CD-1 mouse 1 mg/kg, iv. Also on record: dose 1 mg/kg, route intravenous. The note with it: in vivo.
The nature of series [7]: Half life in CD-1 mouse 10 mg/kg, po. Also on record: dose 10 mg/kg, route oral. Particulars: in vivo.
Series [8] can be described thus: Tmax in CD-1 mouse 10 mg/kg, po. Also on record: dose 10 mg/kg, route oral. The note with it: in vivo.
Series [9] can be described thus: AUC (0 to t) in CD-1 mouse 1 mg/kg, iv. The note with it: plasma. More on the design: dose 1 mg/kg, route intravenous.
A short description of series [10]: Clearance in Sprague-Dawley rat 1 mg/kg, iv. More on the design: dose 1 mg/kg, route intravenous. Particulars: in vivo.
A short description of series [11]: AUC (0 to t) in Sprague-Dawley rat 5 mg/kg, po. Particulars: plasma. Also on record: dose 5 mg/kg, route oral.
The nature of series [12]: Volume of distribution in Sprague-Dawley rat 1 mg/kg, iv. More on the design: dose 1 mg/kg, route intravenous. Particulars: in vivo.
Series [13] can be described thus: Tmax in Sprague-Dawley rat 5 mg/kg, po. More on the design: dose 5 mg/kg, route oral. Particulars: in vivo.
Series [14] is described as follows: Oral bioavailability in Sprague-Dawley rat 5 mg/kg. The note with it: in vivo.
The nature of series [15]: Half life in CD-1 mouse 1 mg/kg, iv. More on the design: dose 1 mg/kg, route intravenous. Particulars: in vivo.
Series [16] in a line: Half life in Sprague-Dawley rat 1 mg/kg, iv. More on the design: dose 1 mg/kg, route intravenous. The note with it: in vivo.
Series [17] can be described thus: AUC (0 to t) in Sprague-Dawley rat 1 mg/kg, iv. Particulars: plasma. More on the design: dose 1 mg/kg, route intravenous.
A short description of series [18]: Oral bioavailability in CD-1 mouse 10 mg/kg. Particulars: in vivo.

Each structure is given as a SMILES string.

For the compound `COc1cc2c(cc1Nc1ncc(Cl)c(Nc3ccc(N4CCOCC4)cc3OC)n1)CCN(CC(=O)N(C)C)CC2`, the exposure AUC(0-t) in series [1] was 3900 ng·h/mL; in series [9], 830 ng·h/mL; in [11] it was 1400 ng·h/mL; in series [17], 1020 ng·h/mL. The Cmax stood at 306 ng/mL in [2] and 1190 ng/mL in series [3]. Also, the concentration at 12 h in series [4] stood at 3000 nM. Besides, the results for the clearance in series [5] and in [10] were 20 mL/min/kg and 16 mL/min/kg, respectively. Besides, the Vd in series [6] amounted to 1.2 L/kg; in [12] it was 1.1 L/kg. The half-life in series [7] is 186 min; in series [15], 42 min; in series [16] it was 48 min. For the same compound, the Tmax amounted to 30 min in series [8] and 3.3 h in series [13]. Moreover, the results for the bioavailability in series [14] and in series [18] were 30% and 64%, respectively.
